Assay results as given in ChEMBL document CHEMBL1201862, “PubChem BioAssay data set” (2004).
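Results reflect a 48-hour exposure of cells in 96-well plates to compound at five concentrations. GI50 is the concentration that inhibits growth by half.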 The source made the active and inactive calls. Cut-off read from the data, not from the text of the source: active = GI50 up to about 1.1 µM and inactive = higher.

Key:
Assay in all cases: NCI-60 cell line screen, 48 h
EKVX = test system: EKVX
SK-OV-3 = test system: SK-OV-3
NCI-H23 = test system: NCI-H23
SR = test system: SR
NCI-H460 = test system: NCI-H460
ACHN = test system: ACHN
CCRF-CEM = test system: CCRF-CEM
MDA-MB-435 = test system: MDA-MB-435
HOP-92 = test system: HOP-92
SK-MEL-28 = test system: SK-MEL-28
MCF7 = test system: MCF7
SK-MEL-5 = test system: SK-MEL-5
IGROV-1 = test system: IGROV-1
OVCAR-5 = test system: OVCAR-5
SF-539 = test system: SF-539
A549 = test system: A549
K562 = test system: K562
HCC 2998 = test system: HCC 2998
CAKI-1 = test system: CAKI-1
SNB-75 = test system: SNB-75

Measured: GI50

Cc1nn(C(=O)c2ccncc2)c2c1C(c1ccccc1O)SC(=N)N2 (configuration not stated)
inactive: EKVX > 10 µM | SK-OV-3 > 10 µM | NCI-H23 > 10 µM | SR > 10 µM | NCI-H460 > 10 µM | ACHN > 10 µM | CCRF-CEM > 10 µM | MDA-MB-435 > 10 µM | HOP-92 > 10 µM | SK-MEL-28 > 10 µM | MCF7 > 10 µM | SK-MEL-5 > 10 µM | IGROV-1 > 10 µM | OVCAR-5 > 10 µM | SF-539 > 10 µM | A549 > 10 µM | K562 > 10 µM | HCC 2998 > 10 µM | CAKI-1 > 10 µM | SNB-75 > 10 µM

COc1ccc(/C=C2\N/C(=N/N)N=C2Cl)cc1
inactive: EKVX > 100 µM | SK-OV-3 > 100 µM | NCI-H23 > 100 µM | SR > 100 µM | ACHN > 100 µM | CCRF-CEM > 100 µM | MDA-MB-435 > 100 µM | HOP-92 > 100 µM | SK-MEL-28 > 100 µM | MCF7 > 100 µM | SK-MEL-5 > 100 µM | IGROV-1 > 100 µM | OVCAR-5 > 100 µM | SF-539 > 100 µM | A549 > 100 µM | K562 > 100 µM | HCC 2998 > 100 µM | CAKI-1 > 100 µM | SNB-75 > 100 µM

CN(/N=C/c1ccccc1C(=O)O)C1=NCCCCN1
inactive: EKVX > 100 µM | SK-OV-3 > 100 µM | NCI-H23 > 100 µM | SR > 100 µM | NCI-H460 > 100 µM | ACHN > 100 µM | CCRF-CEM > 100 µM | MDA-MB-435 > 100 µM | HOP-92 > 100 µM | MCF7 > 100 µM | SK-MEL-5 > 100 µM | IGROV-1 > 100 µM | OVCAR-5 > 100 µM | SF-539 > 100 µM | A549 > 100 µM | K562 > 100 µM | HCC 2998 > 100 µM | CAKI-1 > 100 µM | SNB-75 > 100 µM

C=CCOc1ccc(C(=N/NC(=O)c2ccccc2)/N=N/c2ccc(C)cc2)cc1OC
inactive: EKVX 30.9 µM | NCI-H23 20.2 µM | SR 6.17 µM | NCI-H460 18.4 µM | ACHN 34.8 µM | CCRF-CEM 9.14 µM | MDA-MB-435 19.5 µM | HOP-92 8.79 µM | SK-MEL-28 20 µM | MCF7 35.1 µM | SK-MEL-5 17.9 µM | IGROV-1 18.7 µM | OVCAR-5 42.6 µM | A549 26.2 µM | HCC 2998 18.7 µM | CAKI-1 40.8 µM | SNB-75 20.2 µM

O=C(Nc1ccc(Cl)cc1)c1cc(S(=O)(=O)Nc2n[nH]c(=O)[nH]2)c(SSc2cc(Cl)c(C(=O)Nc3ccc(Cl)cc3)cc2S(=O)(=O)Nc2n[nH]c(=O)[nH]2)cc1Cl
inactive: EKVX > 100 µM | SK-OV-3 > 100 µM | NCI-H23 > 100 µM | SR > 100 µM | NCI-H460 > 100 µM | ACHN > 100 µM | CCRF-CEM > 100 µM | MDA-MB-435 > 100 µM | HOP-92 > 100 µM | SK-MEL-28 > 100 µM | MCF7 > 100 µM | SK-MEL-5 > 100 µM | IGROV-1 > 100 µM | OVCAR-5 > 100 µM | A549 > 100 µM | K562 > 100 µM | HCC 2998 > 100 µM | CAKI-1 > 100 µM | SNB-75 88.1 µM

CC(=O)O[C@H]1[C@@H](OC2CCCC2(c2ccccc2)c2ccccc2)O[N+]([O-])=C[C@@H]1c1ccccc1 (some centres not stated)
inactive: EKVX 13.4 µM | SK-OV-3 14.5 µM | NCI-H23 11.9 µM | SR 2.4 µM | NCI-H460 17.9 µM | ACHN 5.07 µM | CCRF-CEM 3.19 µM | MDA-MB-435 3.34 µM | HOP-92 5.92 µM | SK-MEL-28 2.55 µM | MCF7 3.48 µM | SK-MEL-5 8.02 µM | IGROV-1 2.79 µM | OVCAR-5 17.6 µM | A549 9.33 µM | K562 4.41 µM | HCC 2998 10.4 µM | CAKI-1 4.85 µM | SNB-75 5.55 µM

N#CC1=C(N)N2C(=O)/C(=C/c3ccccc3O)N=C2S1
inactive: EKVX 51.9 µM | SK-OV-3 > 100 µM | NCI-H23 95.3 µM | SR 23.6 µM | ACHN > 100 µM | CCRF-CEM 26.4 µM | MDA-MB-435 > 100 µM | HOP-92 > 100 µM | SK-MEL-28 > 100 µM | MCF7 48.1 µM | SK-MEL-5 80 µM | IGROV-1 29.8 µM | OVCAR-5 98.9 µM | SF-539 28.8 µM | A549 > 100 µM | K562 26.1 µM | HCC 2998 92.9 µM | CAKI-1 51.5 µM | SNB-75 32.9 µM

CN(C)Cc1cc(C(=O)/C=C/c2ccc(Cl)cc2Cl)cc(CN(C)C)c1O
inactive: EKVX 6.18 µM | NCI-H23 6.9 µM | SR 4.03 µM | NCI-H460 1.46 µM | ACHN 2.06 µM | CCRF-CEM 2.16 µM | MDA-MB-435 4.06 µM | HOP-92 3.94 µM | SK-MEL-28 6.25 µM | MCF7 2.33 µM | SK-MEL-5 1.96 µM | IGROV-1 2.72 µM | OVCAR-5 15.2 µM | SF-539 4.4 µM | A549 2.89 µM | K562 1.48 µM | HCC 2998 5.89 µM | CAKI-1 2.36 µM | SNB-75 2.95 µM

CCOc1ccccc1-c1nc2c(s1)C(=O)c1ccccc1C2=O
inactive: EKVX 17.2 µM | SK-OV-3 15 µM | NCI-H23 10.5 µM | SR 6.24 µM | NCI-H460 18.7 µM | ACHN 14.9 µM | MDA-MB-435 2.15 µM | HOP-92 12 µM | SK-MEL-28 16.7 µM | MCF7 12.2 µM | SK-MEL-5 5.12 µM | IGROV-1 12.2 µM | OVCAR-5 19.7 µM | SF-539 16.4 µM | A549 17.1 µM | K562 4.61 µM | HCC 2998 14.5 µM | CAKI-1 12.2 µM | SNB-75 11.4 µM

O=[N+]([O-])C(=C(NCc1ccccc1)NCc1ccccc1)C(Cl)=C(Cl)Cl
inactive: EKVX 51.3 µM | SK-OV-3 51.1 µM | NCI-H23 38.4 µM | SR 23.8 µM | NCI-H460 37.5 µM | ACHN 21.6 µM | CCRF-CEM 23.1 µM | MDA-MB-435 22.9 µM | HOP-92 37.3 µM | SK-MEL-28 61.2 µM | MCF7 41.1 µM | SK-MEL-5 20.2 µM | IGROV-1 34 µM | SF-539 43 µM | A549 42.7 µM | K562 22.3 µM | HCC 2998 40.6 µM | CAKI-1 10.7 µM | SNB-75 2.1 µM

CC(C)C1=CCC2C(=C1)CCC1C(C)(C(=O)O)CCCC21C (configuration not stated)
inactive: EKVX > 100 µM | SK-OV-3 > 100 µM | NCI-H23 81.1 µM | SR > 100 µM | ACHN 94.8 µM | CCRF-CEM > 100 µM | MDA-MB-435 > 100 µM | HOP-92 > 100 µM | SK-MEL-28 > 100 µM | MCF7 > 100 µM | SK-MEL-5 > 100 µM | IGROV-1 > 100 µM | OVCAR-5 > 100 µM | SF-539 > 100 µM | A549 > 100 µM | HCC 2998 > 100 µM | CAKI-1 > 100 µM | SNB-75 > 100 µM
